Data as given in patent US20150072026A1, “Anti-inflammatory ion and uses thereof” (Yunyuan Li, priority 2013, published 2015).

Tests used:
psoriasis = assay: Spray of 10 mM NH4Cl solution on psoriasis sites of patient A; assay type: in vivo, human; conditions: 10 mM NH4Cl spray once every 2 days
Description: Photos were taken before and after treatments in indicated time points. FIGS. 1, 2, 3, 4 and 5 illustrated the results of the above-identified protocol used in this study.

furuncles = assay: Topical NH4Cl in skin moisture lotion to treat furuncles; assay type: in vivo, human; conditions: 10 mM in skin moisture lotion, 3 times a day, after 2-3 days
pain of body = assay: Topical NH4Cl in skin moisture lotion to reduce pain of body; assay type: in vivo, human; conditions: 10 mM in skin moisture lotion, once a day, after 2-3 days
subcutaneous masses = assay: Topical NH4Cl in skin moisture lotion to treat subcutaneous masses; assay type: in vivo, human; conditions: 10 mM in skin moisture lotion, once a day, after 2-3 days
acnes or furuncles = assay: Topical NH4Cl lotion on face to prevent acnes or furuncles; assay type: in vivo, human; conditions: NH4+ 10 mM in skin moisture lotion, topical on face once a week
[1] = system: dermatological inflammatory diseases and other inflammatory diseases or syndrome; conditions: 10 mM, topical or gargle or spray administration

Compound	psoriasis on one hand (psoriasis; 2 months, patient A (FIG. 3))	psoriasis on both elbows (psoriasis; 3 months, patient A (FIG. 2))	psoriasis on the back of the body (psoriasis; 3 months, patient A (FIG. 4))	psoriasis on both hands (psoriasis; 3 months, patient A with psoriasis for 3 years (FIG. 1))	appearance of psoriasis on feet and both knees (psoriasis; 4 months, patient A (FIG. 5))	furuncles (pain, red, nodule) (furuncles)	pain of body (pain of body)	subcutaneous masses (subcutaneous masses)	prevention of acnes or furuncles (acnes or furuncles)	effects for dermatological inflammatory diseases (eczema, acnes, psoriasis, furuncles) and other inflammatory diseases or syndrome [1]
Cl.N [NH4Cl, ammonium chloride]	cures psoriasis	cures psoriasis	cure psoriasis	cures psoriasis	improve appearance of psoriasis	furuncles were cured	completed stopped or significantly reduced	masses less than 1 cm would be disappeared	could prevent acnes or furuncles	excellent effects
CC(=O)O.N [ammonium acetate]										excellent effects
N.N.O=S(=O)(O)O [ammonium sulfate]										excellent effects
